Read-outs that look alike come from different tables or passages of the source.

What all share (assay type): in vivo
Data set [1] relates to Amaranthus retroflexus (AMARE). As to the kind of experiment: Pre-emergence herbicidal action against AMARE. The conditions noted are these: visual scoring after about 3 weeks vs untreated controls. In short, it runs like this: (§1)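 Application rates ran to 320 g/ha or lower, with several dosages tested on the same weeds. The compound, as wettable powder or emulsion concentrate, is sprayed pre-emergence onto soil over sown seeds; greenhouse growth follows, and effect is rated visually after roughly 3 weeks.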

Data set [2] deals with Digitaria sanguinalis (DIGSA). As to the kind of experiment: Pre-emergence herbicidal action against DIGSA. The conditions noted are these: dosage 320 g/ha. In short, it runs like this: as §1
Data set [3] has as its system Zea mays (ZEAMX). The conditions noted are these: pre-emergence, 80 g/ha, crop plant compatibility, in comparison to untreated controls. In short, it runs like this: (§2)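 Crop injury rated visually in percent against untreated plants roughly 3 weeks after treatment (0% no effect, 100% plants dead). Compounds, as WP or EC with 0.5% additive in 600 l/ha water, were applied to the covering soil right after sowing; greenhouse growth. Suffixes a, b, c denote different dosages.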

Data set [4] relates to Amaranthus retroflexus (AMARE). As to the kind of experiment: Post-emergence herbicidal action against AMARE. Summed up:
(§3)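 Greenhouse plants sprayed at the one-leaf stage, 2–3 weeks after sowing, with WP or EC formulations plus 0.5% additive at 600 l/ha water. Activity rated visually after about 3 weeks versus untreated controls (100% = dead, 0% = like control), at 320 g/ha or lower.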

Data set [5] has as its system Matricaria inodora (MATIN). As to the kind of experiment: Post-emergence herbicidal action against MATIN. The conditions noted are these: dosage 320 g/ha. In short, it runs like this:
as §3

Data set [6] concerns Verconica persica (VERPE). As to the kind of experiment: Post-emergence herbicidal action against VERPE. The conditions noted are these: 320 g/ha, VERPE. In short, it runs like this: as §3
Data set [7] relates to Viola tricolor (VIOTR). As to the kind of experiment: Post-emergence herbicidal action against VIOTR. The conditions noted are these: 320 g/ha. In short, it runs like this: as §3
Data set [8] concerns Oryza sativa (ORYSA). The conditions noted are these: crop plant compatibility. In short, it runs like this:
(§4)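 Visual rating (% effect vs. untreated plants; 100% = plant death) made about 3 weeks after treatment. Plants had been sprayed at one-leaf stage, 2–3 weeks post-sowing, with aqueous WP/EC preparations containing 0.5% additive, 600 l/ha water volume; a, b, c mark dose levels.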

In data set [9] the test system is Triticum aestivum (TRZAS). The conditions noted are these: crop plant compatibility, 80 g/ha, effect vs untreated controls. In short, it runs like this: as §4
Data set [10] relates to Zea mays (ZEAMX). In short, it runs like this:
as §4

For data set [11], the system named is Alopecurus myosuroides (ALOMY). As to the kind of experiment: Pre-emergence herbicidal action against ALOMY. The conditions noted are these: scored visually after about 3 weeks, 100% = plants have died. In short, it runs like this: as §1
The subject of data set [12] is Avena fatua (AVEFA). As to the kind of experiment: Pre-emergence herbicidal action against AVEFA. The conditions noted are these: 320 g/ha, visual scoring after about 3 weeks vs untreated controls. Summed up:
as §1

The subject of data set [13] is Echinochloa crus-galli (ECHCG). As to the kind of experiment: Pre-emergence herbicidal action against ECHCG. The conditions noted are these: dosage 320 g/ha. Summed up: as §1
Data set [14] deals with Lolium rigidum (LOLRI). As to the kind of experiment: Pre-emergence herbicidal action against LOLRI. In short, it runs like this: as §1
Data set [15] concerns Matricaria inodora (MATIN). As to the kind of experiment: Pre-emergence herbicidal action against MATIN. The conditions noted are these: dosage 320 g/ha. Summed up: as §1
The test system of data set [16] is Polygonum convolvulus (POLCO). As to the kind of experiment: Pre-emergence herbicidal action against POLCO. The conditions noted are these: dosage 320 g/ha. In short, it runs like this:
as §1

For data set [17], the system named is Setaria viridis (SETVI). As to the kind of experiment: Pre-emergence herbicidal action against SETVI. The conditions noted are these: dosage 320 g/ha. In short, it runs like this:
as §1

For data set [18], the system named is Viola tricolor (VIOTR). As to the kind of experiment: Pre-emergence herbicidal action against VIOTR. The conditions noted are these: 320 g/ha, Viola tricolor. Summed up: as §1
Data set [19] deals with Oryza sativa (ORYSA). The conditions noted are these: pre-emergence, 80 g/ha, crop plant compatibility, in comparison to untreated controls. In short, it runs like this: as §2
Data set [20] has as its system Alopecurus myosuroides (ALOMY). As to the kind of experiment: Post-emergence herbicidal action against ALOMY. The conditions noted are these: 80 g/ha, visual rating about 3 weeks after treatment vs untreated controls (100% = plants have died, 0% = like control plants). Summed up:
as §3

Data set [21] has as its system Avena fatua (AVEFA). As to the kind of experiment: Post-emergence herbicidal action against AVEFA. The conditions noted are these: 80 g/ha, visual rating about 3 weeks after treatment. In short, it runs like this: as §3
Data set [22] relates to Lolium rigidum (LOLRI). As to the kind of experiment: Post-emergence herbicidal action against LOLRI. The conditions noted are these: dosage 80 g/ha. In short, it runs like this:
as §3

Data set [23] relates to Setaria viridis (SETVI). As to the kind of experiment: Post-emergence herbicidal action against SETVI. The conditions noted are these: dosage 80 g/ha. In short, it runs like this: as §3
Where [24] appears, read: 80 g/ha, effect in comparison to untreated controls.

With `COC(=O)CCOC(=O)COc1nn(-c2ccccn2)c(-c2ccc(Cl)nc2)c1Cl` [Example I-243], the “Pre-emergence action against AMARE in %” value in data set [1] (80 g/ha) is recorded as 80%; in data set [1] (320 g/ha) it was 90%. Also, the “Pre-emergence action against DIGSA in %” value in data set [2] came out at 80%. The “Pre-emergence action against ZEAMX in %” value in data set [3] is 10%. Besides, in data set [4] (320 g/ha, visual rating about 3 weeks after treatment), the “Post-emergence action against AMARE in %” value is recorded as 80%. For the same compound, the “Post-emergence action against MATIN in %” value in data set [5] worked out at 80%. Further, the “Post-emergence action against VERPE in %” value in [6] was 80%. Moreover, the “Post-emergence action against VIOTR in %” value in data set [7] is on record as 80%. The “Post-emergence action against ORYSA in %” value in data set [8] (setting [24]) stood at 0%; in data set [8] (320 g/ha, effect in comparison to untreated controls), 10%. For the same compound, in [9], the “Post-emergence action against TRZAS in %” value is given as 20%. For the same compound, the “Post-emergence action against ZEAMX in %” value in [10] (crop plant compatibility, 80 g/ha, effect vs untreated controls) is 0%.
For `CCOC(=O)C(C)Oc1nn(-c2ccccn2)c(-c2ccc(F)nc2)c1C(F)(F)F` (centres unmarked) [Example I-107], the “Pre-emergence action against ALOMY” value in [11] (80 g/ha) and in data set [11] (320 g/ha) was 90% each time. The “Pre-emergence action against AMARE in %” value in [1] (320 g/ha) is given as 100%. Moreover, the “Pre-emergence action against AVEFA in %” value in [12] amounted to 80%. Moreover, in [13], the “Pre-emergence action against ECHCG in %” value is reported as 100%. Besides, the “Pre-emergence action against LOLRI in %” value in data set [14] (dosage 80 g/ha) is reported as 80%; in data set [14] (dosage 320 g/ha), 100%. Also, the “Pre-emergence action against MATIN in %” value in [15] stood at 90%. Also, in data set [16], the “Pre-emergence action against POLCO in %” value came out at 80%. Moreover, in data set [17], the “Pre-emergence action against SETVI in %” value is 100%. For the same compound, in data set [18], the “Pre-emergence action against VIOTR in %” value is listed as 100%. For the same compound, the “Pre-emergence action against ORYSA in %” value in data set [19] was 10%. In addition, the “Post-emergence action against ALOMY in %” value in [20] amounted to 90%. Also, the “Post-emergence action against AMARE in %” value in data set [4] (80 g/ha, visual rating about 3 weeks after treatment vs untreated controls (100% = plants have died, 0% = like control plants)) is 80%. The “Post-emergence action against AVEFA in %” value in data set [21] is reported as 90%. Further, the “Post-emergence action against LOLRI in %” value in [22] worked out at 80%. In data set [23], the “Post-emergence action against SETVI in %” value is 80%. Further, the “Post-emergence action against ORYSA in %” value in data set [8] (20 g/ha, effect vs untreated controls) worked out at 0%; in data set [8] (setting [24]), 10%. For the same compound, the “Post-emergence action against ZEAMX in % (crop plant compatibility)” value in data set [10] (20 g/ha, ZEAMX, effect in comparison to untreated controls) is on record as 20%.

For the origin of these results see patent publication US20240041042A1, “1-(PYRIDYL)-5-AZINYLPYRAZOLE DERIVATIVES, AND THEIR USE FOR CONTROL OF UNDESIRED PLANT GROWTH” (Bayer Aktiengesellschaft, priority 2020, published 2024).
